# Test results as given in ChEMBL document CHEMBL3608258, “Anti-influenza activities of polyphenols from the medicinal mushroom Phellinus baumii” (Bioorg Med Chem Lett, 2015).
# pIC50: −log10 of the molar value. Active and inactive are the calls of the source. No cut-off for these calls is given here.
# Columns and labels:
# [1] = Cytotoxicity against MDCK cells by SRB assay; type: cell-based, Canis lupus familiaris; conditions: dog
# [2] = Retention time of the compound; type: physicochemical
# Neuraminidase [3] = target: T1, Neuraminidase (Influenza A virus, UniProt B4URF0); assay: (§1) Inhibition of recombinant Influenza A virus H1N1 neuraminidase
# [4] = target: Neuraminidase (Influenza A virus) (UniProt B4URF0); assay: as §1
# Neuraminidase [5] = target: T1, Neuraminidase; assay: (§2) Inhibition of recombinant Influenza A virus H5N1 neuraminidase
# [6] = target: Neuraminidase (Influenza A virus) (UniProt B4URF0); assay: as §2
# Influenza A virus [7] = assay: Antiviral activity against Influenza A virus H1N1 infected in MDCK cells assessed as inhibition of virus-induced cytopathic effect by SRB assay; type: functional, organism-based
# [8] = target: Neuraminidase (Influenza A virus) (UniProt B4URF0); assay: Ratio of hispidin IC50 to compound IC50 for recombinant Influenza A virus H1N1 neuraminidase
# Neuraminidase [9] = target: T1, Neuraminidase; assay: Inhibition of recombinant Influenza A virus H3N2 neuraminidase
# [10] = target: Neuraminidase (Influenza A virus) (UniProt B4URF0); assay: Noncompetitive inhibition of recombinant Influenza A virus H1N1 neuraminidase using MU-NANA as substrate
# [11] = Therapeutic index, ratio of CC50 for MDCK cells to IC50 for Influenza A virus H1N1; type: cell-based; conditions: dog, read-out: Ratio CC50/IC50
# Influenza A virus [12] = assay: Antiviral activity against Influenza A virus H1N1 infected in MDCK cells assessed as inhibition of virus-induced change in cell morphology at 10 ug/ml after 2 days by microscopic analysis; type: functional, organism-based
# Influenza A virus [13] = assay: Ratio of zanamivir IC50 to compound IC50 for Influenza A virus H1N1 infected in MDCK cells assessed as inhibition of virus-induced cytopathic effect by SRB assay; type: functional
Compound,CC50 [1] [µM],Retention_time [2] [min],pIC50 (Neuraminidase [3]),inhibition [4],pIC50 (Neuraminidase [5]),inhibition [6],pIC50 (Influenza A virus [7]),Ratio IC50 [8],pIC50 (Neuraminidase [9]),Kiuc [10] [µM],selectivity ratio [11],inhibition (Influenza A virus [12]),Ratio IC50 (Influenza A virus [13])
CC1=CC(=O)[C@H](c2c(O)cc(/C=C/c3ccc(O)c(O)c3)oc2=O)[C@@H](c2ccc(O)c(O)c2)O1 [DAVALLIALACTONE],680,9,4.85,Dose-dependent effect,4.66,Dose-dependent effect,4.37,3.6,4.68,27.6,2.3,Active,–
O=c1cc(O)cc(/C=C/c2ccc(O)c(O)c2)o1 [HISPIDIN],> 100,11.6,4.29,Dose-dependent effect,4.77,Dose-dependent effect,4.24,–,4.34,43,> 1.7,Active,–
O=c1cc(O)cc([C@H]2c3c(cc(/C=C/c4ccc(O)c(O)c4)oc3=O)O[C@@H]2c2ccc(O)c(O)c2)o1 [HYPHOLOMINE B],> 100,14.5,4.64,Dose-dependent effect,4.91,Dose-dependent effect,4.14,2.2,4.84,20.9,> 1.4,Active,–
O=c1oc2cc(/C=C/c3ccc(O)c(O)c3)oc(=O)c2c2cc(O)c(O)cc12 [PHELLIGRIDIN D],> 100,18.8,5.06,Dose-dependent effect,4.96,Dose-dependent effect,4.61,5.8,4.99,15.9,> 4.1,Active,–
CC(=O)N[C@H]1[C@H]([C@H](O)[C@H](O)CO)OC(C(=O)O)=C[C@@H]1NC(=N)N [ZANAMIVIR],–,–,–,–,–,–,7.19,–,–,–,–,Active,–
CC1=CC(=O)C2(O1)c1c(cc(/C=C/c3ccc(O)c(O)c3)oc1=O)OC2c1ccc(O)c(O)c1 (configuration not stated) [INOSCAVIN A],433,14.9,4.70,Dose-dependent effect,4.73,Dose-dependent effect,4.65,2.5,4.73,24.5,4.4,Active,2.9
